Experimental data from publication PMC7265429, “Characterization of a new small-molecule inhibitor of HDAC6 in glioblastoma” (Cell Death & Disease, 2020).

What was measured:
U373-MG cells = test: Dose-response MTT cell viability assay, U373-MG; type: cell-based; details: Homo sapiens, 72 h, Fig. 2d
Protocol: (§1) Glioma-cell lines were seeded at a density of 1.5 × 10^3 cells/well in 96-well plates, with six replicates per condition. […] Cell viability was determined by MTT assay at 72 h after treatment. For this, MTT (3-(4,5-dimethyl-2-thiazolyl)-2,5-diphenyl-2H-tetrazolium bromide) reagent was added and, after a 3 h incubation at 37 °C and 5% CO2, media was removed and the formed crystals were resuspended in DMSO. Plates were measured at 570 nm using a spectrophotometer. Results were analyzed by GraphPad Prism software and IC50 values were calculated.

[1] = system: patient-derived GNS179 stem cells; test: Dose-response MTT cell viability assay, GNS179; type: cell-based; details: Homo sapiens, 72 h, Fig. 2d
Protocol: as §1

U251-MG cells = test: Dose-response MTT cell viability assay, U251-MG; type: cell-based; details: Homo sapiens, U-251, 72 h, Fig. 2d
Protocol: as §1

U87-MG cells [2] = test: Dose-response MTT cell viability assay, U87-MG; type: cell-based; details: Homo sapiens, U-87 MG, 72 h, Fig. 2d
Protocol: as §1

[3] = system: acetyl-α-tubulin (HDAC6 main target) in U251-MG cells; test: Western blot of acetyl-α-tubulin and cleaved PARP in U251-MG; type: cell-based, human; details: 10 nM, 48 h
Protocol: Immunoblots were performed following standard procedures. […] Detection was performed by chemiluminiscence using NOVEX ECL Chemi Substrate (ThermoFisher).

[4] = system: patient-derived GNS166 stem cells; test: Dose-response MTT cell viability assay, GNS166; type: cell-based; details: Homo sapiens, 72 h, Fig. 2d
Protocol: as §1

A172 cells = test: Dose-response MTT cell viability assay, A172; type: cell-based; details: Homo sapiens, A 172, 72 h, Fig. 2d
Protocol: as §1

T98-G cells = test: Dose-response MTT cell viability assay, T98-G; type: cell-based; details: Homo sapiens, T98G, 72 h, Fig. 2d
Protocol: as §1

U87-MG cells [5] = test: Cell viability in combined treatments with TMZ; type: cell-based; details: Homo sapiens, U-87 MG, 100 μM TMZ, 72 h, read-out: cell viability, TMZ alone
Protocol: as §1

Structure (SMILES) | IC50 (U373-MG cells) [µM] | IC50 [1] [µM] | IC50 (U251-MG cells) [µM] | IC50 (U87-MG cells [2]) [µM] | α-tubulin hyperacetylation [3] | IC50 [4] [µM] | IC50 (A172 cells) [µM] | IC50 (T98-G cells) [µM] | viability at 100 µM (U87-MG cells [5]) [%]
CN1CCc2c(c3ccccc3n2Cc2ccc(C(=O)NO)cc2)C1 [Tubastatin A] | 13.2 | 175 | 26.3 | 23.7 | did not | 26.4 | 52.5 | 104 | 
Cn1nnc2c(C(N)=O)ncn2c1=O [TMZ, temozolomide] |  |  |  |  |  |  |  |  | 85
